{"source": "ChEMBL document CHEMBL1201862", "about": "“PubChem BioAssay data set” (2004)", "key": {"cells [1]": {"test": "cells", "assay_type": "functional, cell-based"}, "[2]": {"target": "Nuclear receptor subfamily 0 group B member 1 (Homo sapiens, UniProt P51843)", "sequence (P51843 whole entry)": "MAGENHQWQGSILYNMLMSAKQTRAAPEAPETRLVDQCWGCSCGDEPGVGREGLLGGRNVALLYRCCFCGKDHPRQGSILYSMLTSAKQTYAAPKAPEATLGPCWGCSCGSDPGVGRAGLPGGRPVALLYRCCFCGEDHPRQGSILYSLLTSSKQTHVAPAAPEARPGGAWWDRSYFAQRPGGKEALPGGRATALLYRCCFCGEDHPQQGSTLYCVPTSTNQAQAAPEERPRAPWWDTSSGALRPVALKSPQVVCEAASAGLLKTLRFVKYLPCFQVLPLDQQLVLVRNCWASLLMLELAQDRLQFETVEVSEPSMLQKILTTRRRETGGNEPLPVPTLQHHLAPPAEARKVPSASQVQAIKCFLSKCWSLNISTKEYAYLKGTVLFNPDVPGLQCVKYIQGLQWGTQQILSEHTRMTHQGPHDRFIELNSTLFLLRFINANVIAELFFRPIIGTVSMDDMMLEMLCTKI", "assay_type": "functional, cell-based"}, "cells [3]": {"test": "cells", "assay_type": "functional, cell-based", "remark": "listed apart in the source"}, "cells [4]": {"test": "cells", "assay_type": "functional, cell-based", "remark": "listed apart in the source"}, "cells [5]": {"test": "cells"}, "[6]": {"test": "HepG2 cell cytotoxicity, dose response, cytotoxicity control, cherry-picks, set 5 (AID 1053118)", "assay_type": "functional, cell-based"}, "[7]": {"test": "HEK293 cell cytotoxicity, dose response, cytotoxicity control, cherry-picks, set 5 (AID 1053117)", "assay_type": "functional, cell-based"}, "[8]": {"target": "Potassium channel subfamily K member 9 (Homo sapiens, UniProt Q9NPC2)", "sequence (Q9NPC2 whole entry)": "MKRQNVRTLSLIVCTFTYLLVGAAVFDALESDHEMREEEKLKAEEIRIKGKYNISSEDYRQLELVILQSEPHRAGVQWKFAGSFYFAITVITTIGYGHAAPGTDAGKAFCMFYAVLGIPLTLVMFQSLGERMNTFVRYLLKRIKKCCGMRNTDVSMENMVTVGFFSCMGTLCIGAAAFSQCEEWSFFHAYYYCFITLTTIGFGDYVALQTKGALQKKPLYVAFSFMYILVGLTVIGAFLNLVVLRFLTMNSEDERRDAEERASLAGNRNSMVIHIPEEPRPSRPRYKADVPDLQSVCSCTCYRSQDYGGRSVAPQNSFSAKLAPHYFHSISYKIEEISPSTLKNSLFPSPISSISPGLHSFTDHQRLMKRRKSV", "test": "TASK3 (KCNK9) channel inhibitors, thallium flux, SAR follow-up, selectivity assay for TASK1 inhibitor project, cell-based, FluxOR thallium flux, concentration-response (AID 652211);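 further: potency is for inhibitors of the channel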", "assay_type": "functional"}, "[9]": {"test": "inhibitors of fibronectin matrix deposition, dose response, AH1F cells, Alexa488-FN fluorescence, cherry-picks (AID 1035475)", "assay_type": "functional, cell-based"}, "Kallikrein-7": {"target": "Kallikrein-7 (Homo sapiens, UniProt P49862)", "sequence (P49862 whole entry)": "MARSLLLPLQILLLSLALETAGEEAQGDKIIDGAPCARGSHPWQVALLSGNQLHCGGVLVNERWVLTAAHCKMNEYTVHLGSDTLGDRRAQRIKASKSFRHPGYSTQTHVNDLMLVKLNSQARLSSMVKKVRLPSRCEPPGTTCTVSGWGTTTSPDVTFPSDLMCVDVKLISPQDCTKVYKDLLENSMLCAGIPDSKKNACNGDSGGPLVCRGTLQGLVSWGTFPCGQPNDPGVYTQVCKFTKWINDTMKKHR", "test": "Fluorescence Intensity-based biochemical primary high throughput dose response assay to identify activators of kallikrein-7 (K7) zymogen."}, "[10]": {"target": "1-phosphatidylinositol 4,5-bisphosphate phosphodiesterase gamma-1 (Homo sapiens, UniProt P19174)", "sequence (P19174 whole entry)": "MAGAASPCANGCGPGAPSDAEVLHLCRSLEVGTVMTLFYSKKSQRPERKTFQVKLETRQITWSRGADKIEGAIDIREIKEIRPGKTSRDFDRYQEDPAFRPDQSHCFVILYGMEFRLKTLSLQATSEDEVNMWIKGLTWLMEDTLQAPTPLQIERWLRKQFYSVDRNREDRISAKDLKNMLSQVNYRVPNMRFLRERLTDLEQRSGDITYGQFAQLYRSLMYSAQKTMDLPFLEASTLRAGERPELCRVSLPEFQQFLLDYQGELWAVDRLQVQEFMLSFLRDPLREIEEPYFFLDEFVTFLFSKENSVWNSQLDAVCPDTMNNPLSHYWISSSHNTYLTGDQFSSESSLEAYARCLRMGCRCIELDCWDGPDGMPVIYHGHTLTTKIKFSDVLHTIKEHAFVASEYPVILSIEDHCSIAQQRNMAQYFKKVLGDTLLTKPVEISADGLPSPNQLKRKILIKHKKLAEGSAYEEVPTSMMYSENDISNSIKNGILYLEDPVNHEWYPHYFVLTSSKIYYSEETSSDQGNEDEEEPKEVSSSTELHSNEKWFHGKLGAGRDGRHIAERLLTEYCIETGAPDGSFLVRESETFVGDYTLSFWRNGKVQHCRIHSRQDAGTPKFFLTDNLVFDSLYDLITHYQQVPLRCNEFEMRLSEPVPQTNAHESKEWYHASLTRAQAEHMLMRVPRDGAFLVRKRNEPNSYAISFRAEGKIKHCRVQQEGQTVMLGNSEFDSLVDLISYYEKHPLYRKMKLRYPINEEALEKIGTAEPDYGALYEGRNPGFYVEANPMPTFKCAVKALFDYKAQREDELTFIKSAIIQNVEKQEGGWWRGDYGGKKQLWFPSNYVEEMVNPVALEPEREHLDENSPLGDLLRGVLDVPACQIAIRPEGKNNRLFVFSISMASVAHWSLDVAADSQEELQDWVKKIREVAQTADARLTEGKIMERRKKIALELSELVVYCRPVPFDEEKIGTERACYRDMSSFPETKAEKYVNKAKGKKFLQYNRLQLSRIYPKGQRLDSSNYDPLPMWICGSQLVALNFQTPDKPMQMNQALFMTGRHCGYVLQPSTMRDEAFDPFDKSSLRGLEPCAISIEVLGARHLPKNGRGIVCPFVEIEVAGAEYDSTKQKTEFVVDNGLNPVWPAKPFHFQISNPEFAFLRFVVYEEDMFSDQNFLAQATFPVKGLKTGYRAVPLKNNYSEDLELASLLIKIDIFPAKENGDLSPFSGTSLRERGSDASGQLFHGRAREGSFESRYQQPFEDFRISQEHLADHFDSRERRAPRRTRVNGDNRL", "test": "Counterscreen for inhibitors of phospholipase C isozymes (PLC-B3): Fluorescence-based biochemical high throughput dose response assay to identify inhibitors of phospholipase C isozymes (PLC-gamma1)."}, "[11]": {"target": "1-phosphatidylinositol 4,5-bisphosphate phosphodiesterase beta-3 (Homo sapiens, UniProt Q01970)", "sequence (Q01970 whole entry)": "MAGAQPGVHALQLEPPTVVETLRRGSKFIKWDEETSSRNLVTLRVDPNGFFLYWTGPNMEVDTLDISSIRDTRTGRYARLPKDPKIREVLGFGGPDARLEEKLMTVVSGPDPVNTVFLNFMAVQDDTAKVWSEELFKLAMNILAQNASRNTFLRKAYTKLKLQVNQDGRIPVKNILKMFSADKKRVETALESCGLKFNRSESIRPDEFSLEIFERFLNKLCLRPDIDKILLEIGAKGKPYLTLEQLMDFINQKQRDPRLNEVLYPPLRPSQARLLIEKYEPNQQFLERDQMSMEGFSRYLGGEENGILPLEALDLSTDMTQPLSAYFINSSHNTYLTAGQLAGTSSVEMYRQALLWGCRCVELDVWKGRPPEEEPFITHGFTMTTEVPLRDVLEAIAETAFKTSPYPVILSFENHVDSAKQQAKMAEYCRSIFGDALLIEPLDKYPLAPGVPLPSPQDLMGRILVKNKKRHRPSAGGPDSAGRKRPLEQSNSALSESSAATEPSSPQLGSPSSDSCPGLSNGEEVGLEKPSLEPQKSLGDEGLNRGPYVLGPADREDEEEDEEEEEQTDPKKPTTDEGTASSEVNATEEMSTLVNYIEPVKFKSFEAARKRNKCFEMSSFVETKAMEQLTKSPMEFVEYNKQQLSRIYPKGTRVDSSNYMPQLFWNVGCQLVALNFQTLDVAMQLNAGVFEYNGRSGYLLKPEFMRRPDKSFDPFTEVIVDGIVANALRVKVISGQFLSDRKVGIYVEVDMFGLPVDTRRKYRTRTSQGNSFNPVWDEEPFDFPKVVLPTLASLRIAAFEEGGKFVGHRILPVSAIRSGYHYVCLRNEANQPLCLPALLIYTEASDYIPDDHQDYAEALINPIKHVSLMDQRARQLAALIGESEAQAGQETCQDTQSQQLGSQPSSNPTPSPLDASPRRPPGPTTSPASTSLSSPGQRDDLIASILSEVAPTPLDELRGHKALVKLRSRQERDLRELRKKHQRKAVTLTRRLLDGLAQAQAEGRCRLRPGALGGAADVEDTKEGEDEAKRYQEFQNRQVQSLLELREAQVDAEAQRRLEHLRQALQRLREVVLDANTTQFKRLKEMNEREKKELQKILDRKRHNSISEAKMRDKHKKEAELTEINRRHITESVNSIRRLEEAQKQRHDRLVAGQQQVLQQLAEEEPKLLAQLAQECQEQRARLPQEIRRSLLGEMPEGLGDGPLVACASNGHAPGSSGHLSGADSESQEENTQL", "test": "Fluorescence-based biochemical high throughput dose response assay to identify inhibitors of phospholipase C isozymes (PLC-B3)."}, "Beta-lactamase [12]": {"target": "Beta-lactamase (Salmonella choleraesuis (strain SC-B67), UniProt Q5J463)", "sequence (Q5J463 whole entry)": "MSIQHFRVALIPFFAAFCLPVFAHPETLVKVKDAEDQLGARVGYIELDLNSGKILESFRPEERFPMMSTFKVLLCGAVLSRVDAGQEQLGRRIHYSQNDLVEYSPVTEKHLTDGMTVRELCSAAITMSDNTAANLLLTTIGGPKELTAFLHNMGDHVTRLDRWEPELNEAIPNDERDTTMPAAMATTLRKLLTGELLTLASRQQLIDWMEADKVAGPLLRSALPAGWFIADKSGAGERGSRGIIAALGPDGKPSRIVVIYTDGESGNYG", "test": "Epi-absorbance-based counterscreen for selective VIM-2 inhibitors: dose response biochemical high throughput screening assay to identify inhibitors of TEM-1 serine-beta-lactamase."}, "Beta-lactamase [13]": {"target": "T1, Beta-lactamase (Pseudomonas aeruginosa, UniProt Q79MP6)", "T1 sequence (Q79MP6 whole entry)": "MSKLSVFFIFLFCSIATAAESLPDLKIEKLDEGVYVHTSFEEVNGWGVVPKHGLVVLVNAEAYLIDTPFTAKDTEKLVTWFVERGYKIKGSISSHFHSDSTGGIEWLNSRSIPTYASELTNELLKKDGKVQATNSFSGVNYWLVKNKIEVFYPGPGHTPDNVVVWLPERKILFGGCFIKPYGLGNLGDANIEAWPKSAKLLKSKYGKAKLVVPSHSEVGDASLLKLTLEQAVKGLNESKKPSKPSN", "test": "IMP-1 metallo-beta-lactamase inhibitors, dose response, selectivity assay for VIM-2 inhibitor project, biochemical, epi-absorbance (AID 1920)"}, "Beta-lactamase [14]": {"target": "T1, Beta-lactamase", "test": "[…] counterscreen for selective VIM-2 inhibitors: dose response biochemical high throughput screening assay to identify inhibitors of IMP-1 metallo-beta-lactamase."}, "[15]": {"target": "T2, Oxysterols receptor LXR-beta (Homo sapiens, UniProt P55055)", "T2 sequence (P55055 whole entry)": "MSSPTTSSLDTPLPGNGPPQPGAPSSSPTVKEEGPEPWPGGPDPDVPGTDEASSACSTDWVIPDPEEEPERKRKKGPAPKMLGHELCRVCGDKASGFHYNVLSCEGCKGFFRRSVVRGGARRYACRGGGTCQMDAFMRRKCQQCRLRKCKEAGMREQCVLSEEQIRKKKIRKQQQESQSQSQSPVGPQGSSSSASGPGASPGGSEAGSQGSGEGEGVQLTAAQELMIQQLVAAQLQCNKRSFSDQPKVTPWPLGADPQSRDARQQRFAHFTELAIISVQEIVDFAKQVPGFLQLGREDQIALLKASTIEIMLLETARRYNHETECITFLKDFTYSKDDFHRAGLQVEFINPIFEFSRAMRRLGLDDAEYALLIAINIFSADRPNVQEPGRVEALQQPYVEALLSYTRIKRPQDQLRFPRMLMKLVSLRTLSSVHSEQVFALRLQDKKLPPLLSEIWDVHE", "assay_type": "functional, cell-based"}, "HEK293": {"test_system": "HEK293", "test": "HEK293T cell cytotoxicity, dose response, cytotoxicity control, ATP luminescence, cherry-pick samples (AID 687005);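 further: cells exposed to compound for 48 hours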", "assay_type": "functional, cell-based", "conditions": "Homo sapiens"}, "[16]": {"test": "HEK293 Cytotoxicity Assay Measured in Cell-Based System Using Plate Reader - 7071-01_Inhibitor_Dose_CherryPick_Activity_Set2.", "assay_type": "functional"}, "Cryptococcus neoformans": {"test_system": "Cryptococcus neoformans", "test": "PubChem AID 686997", "assay_type": "functional, organism-based"}}, "note": "Activity calls are given as the source filed them.", "data": [{"smiles": "Cc1cc(C)c2nc(N3CCN(C(=O)c4ccco4)CC3)sc2c1", "values": [{"measurement": "EC50", "setting": "cells [1]", "result": "55.3 µM (active)"}, {"measurement": "IC50", "setting": "[2]", "result": "> 67.5 µM (inactive)"}, {"measurement": "EC50", "setting": "cells [3]", "result": "> 350 µM (not active)"}, {"measurement": "IC50", "setting": "cells [4]", "result": "> 67.5 µM (inactive)"}]}, {"smiles": "C=CCc1c(O)c(CC)cc2c(C)cc(=O)oc12", "values": [{"measurement": "AC50", "setting": "cells [5]", "result": "903 nM (active)"}]}, {"smiles": "CO[C@H]1CN(C)C(=O)c2ccc(NC(=O)Nc3cc(Cl)cc(Cl)c3)cc2OC[C@H](C)NC[C@@H]1C", "values": [{"measurement": "AC50", "setting": "[6]", "result": "30.9 µM (active)"}, {"measurement": "AC50", "setting": "[7]", "result": "41.1 µM (active)"}]}, {"smiles": "COc1ccccc1C(=O)Nc1cccc(NC(=O)c2ccccc2)c1", "values": [{"measurement": "IC50", "setting": "[8]", "result": "1.74 µM (active)"}]}, {"smiles": "Cc1ccc(S(=O)(=O)N2CC[C@@H]3[C@H]2c2cc(-c4cccc(C(=O)N(C)C)c4)ccc2N[C@@H]3CO)cc1", "values": [{"measurement": "AC50", "setting": "[9]", "result": "4.45 µM (active)"}]}, {"smiles": "COc1ccc(-c2ccc3nnc(SCC(=O)NCC4CCCO4)n3n2)cc1", "note": "(centres undefined)", "values": [{"measurement": "EC50", "setting": "Kallikrein-7", "result": "> 69.5 µM (inactive)"}]}, {"smiles": "Cc1c(N2C(=O)c3cccc4cccc(c34)C2=O)c(=O)n(-c2ccccc2)n1C", "values": [{"measurement": "IC50", "setting": "[10]", "result": "> 122 µM (inactive)"}, {"measurement": "IC50", "setting": "[11]", "result": "> 122 µM (inactive)"}]}, {"smiles": "O=C(CSc1nnc(NC(=O)c2ccccc2[N+](=O)[O-])s1)NCc1ccco1", "values": [{"measurement": "IC50", "setting": "Beta-lactamase [12]", "result": "> 59.6 µM (inactive)"}, {"measurement": "IC50", "setting": "Beta-lactamase [13]", "result": "> 59.6 µM (inactive)"}, {"measurement": "IC50", "setting": "Beta-lactamase [14]", "result": "> 59.6 µM (inactive)"}]}, {"smiles": "O=C(/C=C/c1ccccc1)N1CCC(c2ccccc2)C1", "note": "(centres undefined)", "values": [{"measurement": "EC50", "setting": "[15]", "result": "> 67.5 µM (inactive)"}]}, {"smiles": "COC(=O)C1=C(C)N(Cc2ccc(Br)cc2)C(=S)NC1c1ccccc1", "note": "(centres undefined)", "values": [{"measurement": "AC50", "setting": "HEK293", "result": "19.8 µM (active)"}, {"measurement": "AC50", "setting": "[16]", "result": "19.8 µM (active)"}, {"measurement": "AC50", "setting": "Cryptococcus neoformans", "result": "18.8 µM (active)"}]}]}
